Results as given in EP1430879A2, “Arylsulfatase inhibitors in deodorants and antiperspirants” (Henkel Kommanditgesellschaft auf Aktien, priority 2002, dated 2004).

Molecular target: T1, Arylsulfatase (EC 3.1.6.1) aus Aerobacter aerogenes (Klebsiella aerogenes, UniProt P20713)
T1 construct: purchased Sigma S-1629
T1 sequence (P20713 21-464): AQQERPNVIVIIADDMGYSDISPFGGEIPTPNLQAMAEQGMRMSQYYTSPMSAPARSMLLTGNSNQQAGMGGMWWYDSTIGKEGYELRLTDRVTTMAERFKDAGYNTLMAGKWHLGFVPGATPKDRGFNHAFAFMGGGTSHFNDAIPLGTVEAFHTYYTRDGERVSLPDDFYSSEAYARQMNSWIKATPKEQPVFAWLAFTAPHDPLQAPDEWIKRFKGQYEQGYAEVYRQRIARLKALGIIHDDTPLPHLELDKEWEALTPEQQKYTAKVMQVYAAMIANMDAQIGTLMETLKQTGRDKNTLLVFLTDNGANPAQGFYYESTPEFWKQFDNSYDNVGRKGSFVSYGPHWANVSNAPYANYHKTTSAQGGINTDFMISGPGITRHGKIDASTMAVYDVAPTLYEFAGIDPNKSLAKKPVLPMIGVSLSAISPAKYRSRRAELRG
Experiment: Arylsulfatase enzyme inhibition test (Sigma sulfatase assay S-1629, p-nitrophenyl sulfate substrate, spectrophotometric at 420 nm)
Format: biochemical
Conditions: raw material as supplied in aqueous solution; 187 mM Tris/HCl pH 7,1, 8 mM pNPS, 0,05 U/ml Arylsulfatase, 37°C
From the text: Da die hautrelevante Arylsulfatase nicht zur Verfügung stand, diente eine handelsübliche Arylsulfatase (EC 3.1.6.1) aus Aerobacter aerogenes als Modellenzym, um die Hemmwirkung der erfindungsgemäß verwendeten Inhibitoren zu testen. Die Tests wurden mit dem Sulfatase-Enzymassay Product No. S-1629 von Sigma gemäß den Angaben im Sigma Quality Control Test Procedure-Datenblatt durchgeführt. Als Referenz-Inhibitoren dienten Ascorbinsäure und ATP.
Zur Auswertung wurde die Arylsulfatase-katalysierte Bildung von p-Nitrophenol aus dem Substrat p-Nitrophenylsulfat (pNPS) spektrophotometrisch (λ = 420 nm) verfolgt. Die Reaktionslösungen von 1000 µl, die auf eine Reaktionstemperatur von 37°C temperiert wurden, enthielten 187 mM Tris/HCl (pH 7,1), 8 mM pNPS und eine Startkonzentration von 0,05 U/ml Arylsulfatase. Die Einheit U der Enzymaktivität wurde so definiert, dass 1 U Sulfatase 1,0 µmol pNPS pro Minute bei pH 7,1 und 37°C hydrolysiert. Die Testdurchführung ist auch offenbart bei H.R. Fowler und D. H. Rammler, Biochemistry 3, 230, 1964.
Die Reaktion wurde durch Zugabe des Enzyms gestartet und der Anstieg der Absorption bei λ = 420 nm über 5 Minuten verfolgt. Der lineare Anstieg der Absorption (A) pro Zeiteinheit (t) ist hierbei ein Maß für die Aktivität des Enzyms (ΔA/Δt). Die Aktivität des Enzyms in Abwesenheit eines Inhibitors, (ΔA1/Δt1 ), wurde als Referenz gleich 100% gesetzt. […]

COc1cc2c(cc1O)CCC(C)(C)O2 [Lipochroman-6, 3,4-Dihydro-7-methoxy-2,2-dimethyl-2H-1-benzopyran-6-ol]
Konzentration mit einer inhibierenden Wirkung von 50 %: 0,1 Gew.-% Rohstoff tel quel in wässriger Lösung
